# Test results as given in US20020082254A1, “Compounds for treating disorders where a decreased level of plasma FFA is desired” (priority 2000, published 2002).
# Legend:
# Lipoprotein lipase (LPL) = target: T1, Lipoprotein lipase (LPL) (Bos taurus, UniProt P11151); experiment: Lipoprotein lipase (LPL) inhibition assay, 3H-triolein/intralipid substrate; format: biochemical; conditions: read-out: LPL inhibition (% inh. at 50 μM)
# T1 construct: Dr. Gunilla Olivecrona, Umea University (gift)
# T1 sequence (P11151 29-478): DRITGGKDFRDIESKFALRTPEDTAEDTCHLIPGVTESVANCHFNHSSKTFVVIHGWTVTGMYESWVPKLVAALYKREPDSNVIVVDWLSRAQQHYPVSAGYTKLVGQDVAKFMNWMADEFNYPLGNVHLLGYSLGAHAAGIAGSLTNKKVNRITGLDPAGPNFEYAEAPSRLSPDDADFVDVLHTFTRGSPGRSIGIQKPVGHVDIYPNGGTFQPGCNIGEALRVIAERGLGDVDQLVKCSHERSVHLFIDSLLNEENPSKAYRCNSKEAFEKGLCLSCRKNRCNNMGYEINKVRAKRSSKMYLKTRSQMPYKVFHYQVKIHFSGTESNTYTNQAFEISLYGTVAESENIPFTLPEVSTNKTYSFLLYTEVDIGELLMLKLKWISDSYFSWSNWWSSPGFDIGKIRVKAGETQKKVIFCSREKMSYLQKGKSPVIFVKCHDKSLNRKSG
# Text: Lipoprotein Lipase (LPL) [Classified as EC 3.1.1.34 in accordance with the Recommendations of the Nomenclature Committee of the International Union of Biochemistry and Molecular Biology (available on the World Wide Web at the following address: http://www.chem.qmw.ac.uk/iubmb/enzyme/)]
# Materials. The lipoprotein lipase employed was obtained from Dr. Gunilla Olivecrona of Umea University, Sweden. ^3H-triolein (TO) from Amersham, Buckinghamshire, U.K., cat No. TRA191; 5-20 Ci/mmol dissolved in toluene. Intralipid is from Kabi-Fresenius). Apo CII was obtained from PMSF-treated plasma from overnight fasted rats. All other reagents are of commercial grade and obtained from various commercial sources.
# Methods. The preparation of the substrate is as follows:
# 25 μl of ^3H-Triolein evaporated under a gentle stream of N2 in a 27° C. room in 4 ml chromacol glass followed by the addition of 1 ml 10% intralipid. This is mixed and sonicated on ice for 5 minutes (50% pulse mode). This can be kept for 1 week at 4° C.
# 100 μl assay medium (0.3M Tris-Cl, 0.2M NaCl, 0.2 mg heparin/ml and 120 mg BSA/ml (fraction V, Sigma no. 3401, pH 8.5))
# All mixed in a 13×100 mm glass tube and incubated for at least 5 minutes.
# 2. Add 5 μl LPL (of a solution containing 500 mU/mg)
# Mix and incubate for 30 minutes at 25° C.
# 3. The reaction is stopped with 3.25 ml of a solution containing Methanol:chloroform:heptan 10:9:7. Add 1.05 ml buffer (100 mM Boric acid, 100 mM potassium carbonate pH 10.5) and mix 10 seconds per vial.
# 5. Take 1 ml of the upper phase+10 ml scintillation fluid and mix
# 6. Scintillation count for 5 minutes per vial.
# Hepatic lipase (HL) = target: T2, Hepatic lipase (HL) (Homo sapiens, UniProt P11150); experiment: Hepatic lipase (HL) inhibition assay, 3H-triolein substrate; format: biochemical; conditions: read-out: HL inhibition (% inh. at 50 μM)
# T2 sequence (P11150 23-499): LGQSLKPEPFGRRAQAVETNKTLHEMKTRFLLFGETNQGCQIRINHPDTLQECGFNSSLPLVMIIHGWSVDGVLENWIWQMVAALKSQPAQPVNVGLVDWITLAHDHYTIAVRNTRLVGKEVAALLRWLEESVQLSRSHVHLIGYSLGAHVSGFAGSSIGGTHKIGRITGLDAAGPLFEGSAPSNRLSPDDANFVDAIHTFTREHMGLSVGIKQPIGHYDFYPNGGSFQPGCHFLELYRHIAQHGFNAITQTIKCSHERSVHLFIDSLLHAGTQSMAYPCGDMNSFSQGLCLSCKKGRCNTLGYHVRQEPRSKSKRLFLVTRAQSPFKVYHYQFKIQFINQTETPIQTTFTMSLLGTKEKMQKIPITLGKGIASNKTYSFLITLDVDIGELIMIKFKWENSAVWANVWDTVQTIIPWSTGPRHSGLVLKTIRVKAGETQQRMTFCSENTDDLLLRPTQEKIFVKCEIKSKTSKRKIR
# Text: Hepatic Lipase (HL) [classified as a triacylglycerol lipase, EC 3.1.1.3, in accordance with the Recommendations of the Nomenclature Committee of the International Union of Biochemistry and Molecular Biology (available on the World Wide Web at the following address: http://www.chem.qmw.ac.uk/iubmb/enzyme/)]
# Materials. The hepatic lipase employed was obtained from Dr. Howard Wong of the University of California at Los Angeles (UCLA), USA, or produced and purified using the methods and a cell line provided by Dr. Wong's laboratory. ^3H-triolein (TO) from Amersham, Buckinghamshire, U.K., cat No. TRA191; 5-20 Ci/mmol dissolved in toluene and triolein (Sigma, Cat. No. T-1740). All other reagents are of commercial grade and obtained from various commercial sources.
# 50 μl TO in a 20 ml scintillation vial and evaporate with N2 for 5 minutes.
# Add 1 ml 10% gum arabic and 1.25 ml Tris-Cl pH 8.5 and 2 ml MilliQ water.
# Sonicate, on ice, 16 times for 30 seconds with a 30-second interval between cycles.
# Add 2.5 ml of 5 M NaCl+2.5 ml BSA (10% in Milli Q, pH 8)+3.25 ml Milli Q
# Total volume: 12.5 ml (for 80 reactions )
# If an inhibitor is going to be used, it should be incubated with the 50 μl HL (of a 125 mU/ml solution) for 70 minutes at 25° C. A 5 μl aliquot from the incubated 50 μl is added to 150 μl assay mix+45 μl Milli Q™ water and mixed.
# Incubate for exactly 30 minutes at 25° C.
# Stop the reaction with Methanol:chloroform:heptane 10:9:7: 3.25 ml/vial, mix; then add 1.05 ml buffer (100 mM boric acid, 100 mM potassium carbonate pH 10.5), mix for 10 seconds per vial.
# Centrifuge for 20 min/2000 rpm
# Take 1 ml of the upper phase+10 ml scintillation fluid and mix by shaking by hand.
# Scintillation count for 5 minutes per vial.
Structure (SMILES),inhibition at 50 µM (Lipoprotein lipase (LPL)),inhibition at 50 µM (Hepatic lipase (HL))
"CC(C)(C)OC(=O)Nc1ccc(OC(=O)NN2CCc3ccccc3C2)cc1 [Example 17, (3,4-Dihydro-1H-isoquinolin-2-yl)-carbamic Acid 4-tert-butoxycarbonylamino-phenyl Ester]",0%,3%
"O=C(NN1CCc2ccccc2C1)Oc1ccc(Cl)cc1 [Example 6, (3,4-Dihydro-1H-isoquinolin-2-yl)-carbamic acid 4-chloro-phenyl Ester]",0%,6%
"CC1Cc2ccccc2CN1NC(=O)Oc1ccc(Cl)cc1 (stereo not drawn) [Example 23, (3-Methyl-3,4-dihydro-1H-isoquinolin-2-yl)-carbamic Acid 4-chloro-phenyl Ester]",4%,4%
